Assay results: US8017612B2, “Piperazine compound and use thereof as a HCV polymerase inhibitor” (priority 2006, dated 2011)
Structures can show the parent of a compound that is named as a salt.

What was measured:
[1] = target: T1, HCV polymerase (NS5B) type 1b (Hepatitis C virus genotype 1b, UniProt P26663); assay: Assay of enzyme (HCV polymerase) inhibitory activity, type 1b enzyme; type: biochemical, HCV BK strain (type 1b); details: HCV polymerase inhibitory activity (IC50), 1b, type 1b enzyme 0.5 μg/ml, 25° C., 60 min
T1 construct: a region encoding NS5B (J Virol 1991 March, 65(3), 1105-13, 544 amino acids after deletion of 47 amino acids on the C-terminal); 6xHis (C); made in house; host or cells: Escherichia coli
Outline: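 Rxn: NS5B 1b (BK, ΔC47, His6) 0.5 μg/ml; substrate RNA 5 μg/ml; ATP/GTP/CTP 50 μM, UTP 2 μM + [5,6-3H]UTP; 20 mM Tris pH 7.5, 5 mM MgCl2, 50 mM NaCl, 1 mM EDTA/DTT. 25 °C, 60 min. Stop with TCA/pyrophosphate, filter, scintillation count; IC50 vs. untreated.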

[2] = target: T2, HCV polymerase (NS5B) type 1a (Hepatitis C virus genotype 1a, UniProt P26664); assay: Assay of enzyme (HCV polymerase) inhibitory activity, type 1a enzyme; type: biochemical, HCV type 1a (cloned from the blood of patients); details: HCV polymerase inhibitory activity (IC50), 1a, type 1a enzyme 1.5 μg/ml, 25° C., 60 min
T2 construct: made in house; host or cells: Escherichia coli (by the 'similar method' of the 1b enzyme)
Outline: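 NS5B Δ47 C-term His6 (type 1a, 1.5 μg/ml); substrate RNA 5 μg/ml; ATP/GTP/CTP 50 μM, UTP 2 μM + [5,6-3H]UTP; Tris pH 7.5, MgCl2 5 mM; 25° C, 60 min. TCA/pyrophosphate stop, GF/B filter, scintillation. IC50 vs no-compound control.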

Compound | IC50 [1] | IC50 [2]
CC(C)c1ccc(S(=O)(=O)N2CCN(c3nc(C(=O)O)cs3)CC2C(=O)NCc2ccc(C(F)(F)F)cc2)cc1 (centres unmarked) [Example 171, 2-[4-(4-isopropyl-benzenesulfonyl)-3-(4-trifluoromethyl-benzylcarbamoyl)-piperazin-1-yl]-thiazole-4-carboxylic acid] | > 1 µM | > 1 µM
CC(C)c1ccc(CNC(=O)[C@H]2CN(C(=O)Cc3ccccc3)CCN2S(=O)(=O)c2ccc(C(F)(F)F)cc2)cc1 [Example 172, (R)-4-phenylacetyl-1-(4-trifluoromethyl-benzenesulfonyl)-piperazine-2-carboxylic acid 4-isopropyl-benzylamide] | 0.1 to 1 µM | > 1 µM
COC(=O)CCC(=O)N1CCN(S(=O)(=O)c2ccc(C(F)(F)F)cc2)[C@@H](C(=O)NCc2ccc(C(C)C)cc2)C1 [Example 173, 4-[(R)-3-(4-isopropyl-benzylcarbamoyl)-4-(4-trifluoromethyl-benzenesulfonyl)-piperazin-1-yl]-4-oxo-butyric acid methyl ester] | 0.1 to 1 µM | 0.1 to 1 µM
COC(=O)CCCC(=O)N1CCN(S(=O)(=O)c2ccc(C(F)(F)F)cc2)[C@@H](C(=O)NCc2ccc(C(C)C)cc2)C1 [Example 174, 5-[(R)-3-(4-isopropyl-benzylcarbamoyl)-4-(4-trifluoromethyl-benzenesulfonyl)-piperazin-1-yl]-5-oxo-pentanoic acid methyl ester] | 0.1 to 1 µM | 0.1 to 1 µM
CC(C)c1ccc(CNC(=O)[C@H]2CN(C(=O)Cc3cccnc3)CCN2S(=O)(=O)c2ccc(C(F)(F)F)cc2)cc1 [Example 175, (R)-4-(2-pyridin-3-yl-acetyl)-1-(4-trifluoromethyl-benzenesulfonyl)-piperazine-2-carboxylic acid 4-isopropyl-benzylamide] | 0.1 to 1 µM | 0.1 to 1 µM
CC(=O)N1CCN(S(=O)(=O)c2ccc(C(F)(F)F)cc2)[C@@H](C(=O)NCc2ccc(C(C)C)cc2)C1 [Example 176, (R)-4-acetyl-1-(4-trifluoromethyl-benzenesulfonyl)-piperazine-2-carboxylic acid 4-isopropyl-benzylamide] | 0.1 to 1 µM | 0.1 to 1 µM
CCNC(=O)N1CCN(S(=O)(=O)c2ccc(C(F)(F)F)cc2)[C@@H](C(=O)NCc2ccc(C(C)C)cc2)C1 [Example 177, (R)-4-(4-trifluoromethyl-benzenesulfonyl)-piperazine-1,3-dicarboxylic acid 1-ethylamide 3-(4-isopropyl-benzylamide)] | 0.1 to 1 µM | 0.1 to 1 µM
CC(C)c1ccc(CNC(=O)[C@H]2CN(C(=O)Nc3ccccc3)CCN2S(=O)(=O)c2ccc(C(F)(F)F)cc2)cc1 [Example 178, (R)-4-(4-trifluoromethyl-benzenesulfonyl)-piperazine-1,3-dicarboxylic acid 3-(4-isopropyl-benzylamide) 1-phenylamide] | 0.1 to 1 µM | 0.1 to 1 µM
CC(C)c1ccc(CNC(=O)[C@H]2CN(C3=NCCS3)CCN2S(=O)(=O)c2ccc(C(F)(F)F)cc2)cc1 [Example 179, (R)-4-(4,5-dihydro-thiazol-2-yl)-1-(4-trifluoromethyl-benzenesulfonyl)-piperazine-2-carboxylic acid 4-isopropyl-benzylamide] | 0.1 to 1 µM | 0.1 to 1 µM
CC(C)c1ccc(CNC(=O)[C@H]2CN(C(=O)CN3CCOCC3)CCN2S(=O)(=O)c2ccc(C(F)(F)F)cc2)cc1 [Example 180, (R)-4-(2-morpholin-4-yl-acetyl)-1-(4-trifluoromethyl-benzenesulfonyl)-piperazine-2-carboxylic acid 4-isopropyl-benzylamide] | 0.1 to 1 µM | > 1 µM
CC(=O)N1CCN(S(=O)(=O)c2ccc(C(C)C)cc2)C(C(=O)NCc2ccc(N(C)CCO)cc2)C1 (centres unmarked) [Example 181, 4-acetyl-1-(4-isopropyl-benzenesulfonyl)-piperazine-2-carboxylic acid 4-[(2-hydroxy-ethyl)-methyl-amino]-benzylamide] | > 1 µM | > 1 µM
CC(=O)N1CCN(S(=O)(=O)c2ccc(C(C)C)cc2)[C@@H](C(=O)NCc2ccc(Br)cc2Cl)C1 [Example 182, (R)-4-acetyl-1-(4-isopropyl-benzenesulfonyl)-piperazine-2-carboxylic acid 4-bromo-2-chloro-benzylamide] | 0.1 to 1 µM | 0.1 to 1 µM
CC(=O)N1CCN(S(=O)(=O)c2ccc(C(C)C)cc2)[C@@H](C(=O)NCc2ccc(C(C)C)cc2Cl)C1 [Example 183, (R)-4-acetyl-1-(4-isopropyl-benzenesulfonyl)-piperazine-2-carboxylic acid 2-chloro-4-isopropyl-benzylamide] | 0.1 to 1 µM | 0.1 to 1 µM
Cc1csc(N2CCN(S(=O)(=O)c3ccc(C(F)(F)F)cc3)[C@@H](C(=O)NCc3ccc(C(C)C)cc3)C2)n1 [Example 184, (R)-4-(4-methyl-thiazol-2-yl)-1-(4-trifluoromethyl-benzenesulfonyl)-piperazine-2-carboxylic acid 4-isopropyl-benzylamide] | 0.1 to 1 µM | 0.1 to 1 µM
CC(=O)NCC(=O)N1CCN(S(=O)(=O)c2ccc(C(F)(F)F)cc2)[C@@H](C(=O)NCc2ccc(C(C)C)cc2)C1 [Example 185, (R)-4-(2-acetylamino-acetyl)-1-(4-trifluoromethyl-benzenesulfonyl)-piperazine-2-carboxylic acid 4-isopropyl-benzylamide] | 0.1 to 1 µM | > 1 µM
CC(C)c1ccc(CNC(=O)[C@H]2CN(C(=O)CCNC(=O)OC(C)(C)C)CCN2S(=O)(=O)c2ccc(C(F)(F)F)cc2)cc1 [Example 186, {3-[(R)-3-(4-isopropyl-benzylcarbamoyl)-4-(4-trifluoromethyl-benzenesulfonyl)-piperazin-1-yl]-3-oxo-propyl}-carbamic acid tert-butyl ester] | 0.1 to 1 µM | > 1 µM
CC(C)c1ccc(CNC(=O)[C@H]2CN(C(=O)CCC(=O)O)CCN2S(=O)(=O)c2ccc(C(F)(F)F)cc2)cc1 [Example 187, 4-[(R)-3-(4-isopropyl-benzylcarbamoyl)-4-(4-trifluoromethyl-benzenesulfonyl)-piperazin-1-yl]-4-oxo-butyric acid] | > 1 µM | > 1 µM
CC(=O)NCCC(=O)N1CCN(S(=O)(=O)c2ccc(C(F)(F)F)cc2)[C@@H](C(=O)NCc2ccc(C(C)C)cc2)C1 [Example 188, (R)-4-(3-acetylamino-propionyl)-1-(4-trifluoromethyl-benzenesulfonyl)-piperazine-2-carboxylic acid 4-isopropyl-benzylamide] | 0.1 to 1 µM | 0.1 to 1 µM
CC(C)c1ccc(CNC(=O)[C@H]2CN(C(=O)CCN)CCN2S(=O)(=O)c2ccc(C(F)(F)F)cc2)cc1 [Example 189, (R)-4-(3-amino-propionyl)-1-(4-trifluoromethyl-benzenesulfonyl)-piperazine-2-carboxylic acid 4-isopropyl-benzylamide hydrochloride] | > 1 µM | > 1 µM
CC(C)c1ccc(CNC(=O)[C@H]2CN(C(=O)CCCC(=O)O)CCN2S(=O)(=O)c2ccc(C(F)(F)F)cc2)cc1 [Example 190, 5-[(R)-3-(4-isopropyl-benzylcarbamoyl)-4-(4-trifluoromethyl-benzenesulfonyl)-piperazin-1-yl]-5-oxo-pentanoic acid] | 0.1 to 1 µM | > 1 µM
CC(C)c1ccc(CNC(=O)[C@H]2CN(c3nc4ccccc4s3)CCN2S(=O)(=O)c2ccc(C(F)(F)F)cc2)cc1 [Example 191, (R)-4-benzothiazol-2-yl-1-(4-trifluoromethyl-benzenesulfonyl)-piperazine-2-carboxylic acid 4-isopropyl-benzylamide] | 0.1 to 1 µM | 0.1 to 1 µM
CCOc1ccc(S(=O)(=O)N2CCN(C(C)=O)C[C@@H]2C(=O)NCc2ccc(C(C)C)cc2)cc1 [Example 192, (R)-4-acetyl-1-(4-ethoxy-benzenesulfonyl)-piperazine-2-carboxylic acid 4-isopropyl-benzylamide] | 0.1 to 1 µM | 0.1 to 1 µM
CCCOc1ccc(S(=O)(=O)N2CCN(C(C)=O)C[C@@H]2C(=O)NCc2ccc(C(C)C)cc2)cc1 [Example 193, (R)-4-acetyl-1-(4-propoxy-benzenesulfonyl)-piperazine-2-carboxylic acid 4-isopropyl-benzylamide] | 0.1 to 1 µM | 0.1 to 1 µM
CC(=O)N1CCN(S(=O)(=O)c2ccc(CC(C)C)cc2)[C@@H](C(=O)NCc2ccc(C(C)C)cc2)C1 [Example 194, (R)-4-acetyl-1-(4-isobutyl-benzenesulfonyl)-piperazine-2-carboxylic acid 4-isopropyl-benzylamide] | < 0.1 µM | < 0.1 µM
CC(C)c1ccc(CNC(=O)[C@H]2CN(C(=O)Cc3c[nH]cn3)CCN2S(=O)(=O)c2ccc(C(F)(F)F)cc2)cc1 [Example 195, (R)-4-(2-1H-imidazol-4-yl-acetyl)-1-(4-trifluoromethyl-benzenesulfonyl)-piperazine-2-carboxylic acid 4-isopropyl-benzylamide] | 0.1 to 1 µM | 0.1 to 1 µM
